# Where two headings read alike, the source gives them in different places.
# How the values were obtained:
# [1] = target: FLNA pentapeptide of SEQ ID NO: 1 (Bn-VAKGL) (Homo sapiens, UniProt P21333); test: FITC-NLX-based FLNA screening assay (inhibition of FITC-naloxone binding to Bn-VAKGL on streptavidin plates); details: 10 nM FITC-NLX
# mu opiate receptor (MOR) = test: MOR agonist activity using [35S]GTPγS binding assay in striatal membranes; format: biochemical; details: for MOR agonist activity ([35S]GTPγS binding), FLNA-Binding Compound as Agonist 1 μM + BFNA: 1 μM compound + 1 μM β-funaltrexamine
# Description: To assess the mu opiate receptor (MOR) agonist activity of positive compounds from the FLNA screening, compounds were tested in a [^35S]GTPγS binding assay using striatal membranes. […] This assay measures a functional consequence of receptor occupancy at one of the earliest receptor-mediated events. The assay permits traditional pharmacological parameters of potency, efficacy and antagonist affinity, with the advantage that agonist measures are not subjected to amplification or other modulation that may occur when analyzing parameters further downstream of the receptor.
# Thus, striatal tissue was homogenized in 10 volumes of ice cold 25 mM HEPES buffer, pH 7.4, which contained 1 mM EGTA, 100 mM sucrose, 50 μg/ml leupeptin, 0.04 mM PMSF, 2 μg/ml soybean trypsin inhibitor and 0.2% 2-mercaptoethanol. The homogenates were centrifuged at 800×g for 5 minutes and the supernatants were centrifuged at 49,000×g for 20 minutes. The resulting pellets were suspended in 10 volume of reaction buffer, which contained 25 mM HEPES, pH 7.5, 100 mM NaCl, 50 μg/ml leupeptin, 2 μg/ml soybean trypsin inhibitor, 0.04 mM PMSF and 0.02% […].
# The resultant striatal membrane preparation (200 μg) was admixed and maintained (incubated) at 30° C. for 5 minutes in reaction buffer as above that additionally contained 1 mM MgCl2 and 0.5 nM [^35S]GTPγS (0.1 μCi/assay, PerkinElmer Life and Analytical Sciences) in a total volume of 250 μl and continued for 5 minutes in the absence or presence of 0.1-10 μM of an assayed compound of interest. The reaction was terminated by dilution with 750 μl of ice-cold reaction buffer that contained 20 mM MgCl2 and 1 mM EGTA and immediate centrifugation at 16,000×g for 5 minutes.
# The resulting pellet was solubilized by sonicating for 10 seconds in 0.5 ml of immunoprecipitation buffer containing 0.5% digitonin, 0.2% sodium cholate and 0.5% NP-40. Normal rabbit serum (1 μl) was added to 1 ml of lysate and incubated at 25° C. for 30 minutes. Nonspecific immune complexes were removed by incubation with 25 μl of protein A/G-conjugated agarose beads at 25° C. for 30 minutes followed by centrifugation at 5,000×g at 4° C. for 5 minutes. The supernatant was divided and separately incubated at 25° C. for 30 minutes with antibodies raised against Gαo proteins (1:1,000 dilutions).
# The immunocomplexes so formed were collected by incubation at 25° C. for 30 minutes with 40 μl of agarose-conjugated protein A/G beads and centrifugation at 5,000×g at 4° C. for 5 minutes. The pellet was washed and suspended in buffer containing 50 mM Tris-HCl, pH 8.0, and 1% NP-40. The radioactivity in the suspension was determined by liquid scintillation spectrometry.
# [2] = FLNA-binding compound 0.01 μM, read-out: Percent Binding Inhibition
# [3] = FLNA-binding compound 0.1 μM, read-out: Percent Binding Inhibition
# [4] = FLNA-binding compound 1 μM, read-out: Percent Binding Inhibition
# [5] = 0.1 μM compound relative to DAMGO
# [6] = 1 μM compound + BFNA relative to DAMGO + BFNA
# [7] = 1 μM compound relative to DAMGO
# [8] = read-out: Percent Binding Inhibition, FLNA-binding compound 0.01 μM
# [9] = read-out: Percent Binding Inhibition, FLNA-binding compound 0.1 μM
# [10] = read-out: Percent Binding Inhibition, FLNA-binding compound 1 μM
# [11] = Series C-1, 0.1 μM compound, relative to DAMGO
# [12] = Series C-1, 0.1 μM compound, [35S]GTPγS binding to Gαo, striatal membranes
# [13] = Series C-1, 1 μM compound + 1 μM β-FNA
# [14] = Series C-1, 1 μM compound + β-FNA, relative to DAMGO + BFNA
# [15] = Series C-1, 1 μM compound, relative to DAMGO
# [16] = Series C-1, 1 μM compound, [35S]GTPγS binding to Gαo, striatal membranes
# [17] = Series C-2, 0.1 μM compound, relative to DAMGO
# [18] = Series C-2, 0.1 μM compound, [35S]GTPγS binding to Gαo, striatal membranes
# [19] = Series C-2, 1 μM compound + 1 μM β-FNA
# [20] = Series C-2, 1 μM compound + β-FNA, relative to DAMGO + BFNA
# [21] = Series C-2, 1 μM compound, relative to DAMGO
# [22] = Series C-2, 1 μM compound, [35S]GTPγS binding to Gαo, striatal membranes
Compound,"inhibition at 0.01 µM [1, 2]","inhibition at 0.1 µM [1, 3]","inhibition at 1 µM [1, 4]","MOR agonist activity ([35S]GTPγS binding), FLNA-Binding Compound as Agonist 0.1 μM (mu opiate receptor (MOR); 0.1 μM compound)",% DAMGO (0.1 μM) (mu opiate receptor (MOR); [5]),"MOR agonist activity ([35S]GTPγS binding), FLNA-Binding Compound as Agonist 1 μM (mu opiate receptor (MOR); 1 μM compound)","MOR agonist activity ([35S]GTPγS binding), FLNA-Binding Compound as Agonist 1 μM + BFNA (mu opiate receptor (MOR))",% DAMGO + BFNA (mu opiate receptor (MOR); [6]),% DAMGO (1 μM) (mu opiate receptor (MOR); [7]),"inhibition at 0.01 µM [1, 8]","inhibition at 0.1 µM [1, 9]","inhibition at 1 µM [1, 10]",further results
CC1CCC(C)C(OCC(O)CN2CC(C)OC(C)C2)C1 (stereo not drawn) [Compound A0022],41.9%,49.7%,56.8%,154.1%,90.0%,216.0%,28.0%,53.7%,80.9%,–,–,–,–
COc1ccc(S(=O)(=O)N2CCOC23CCN(S(=O)(=O)c2ccc(C(C)=O)cc2)CC3)cc1 [Compound C0047],–,–,–,–,–,–,–,–,–,30.8%,35.2%,41.4%,% DAMGO (0.1 μM) (mu opiate receptor (MOR); [11]): 98.1%; Concentration of FLNA-Binding Compound as Agonist 0.1 μM (mu opiate receptor (MOR); [12]): 142.2%; Concentration of FLNA-Binding Compound as Agonist 1 μM + BFNA (mu opiate receptor (MOR); [13]): 80.1%; % DAMGO + BFNA (mu opiate receptor (MOR); [14]): 182.0%; % DAMGO (1 μM) (mu opiate receptor (MOR); [15]): 88.5%; Concentration of FLNA-Binding Compound as Agonist 1 μM (mu opiate receptor (MOR); [16]): 206.1%
CN1CCC2(CC1)NCC(=O)N2Cc1ccccc1 [Compound C0105M],–,–,–,–,–,–,–,–,–,55.7%,62%,68.8%,"% DAMGO (0.1 μM) (mu opiate receptor (MOR); [17]): 104.7%; MOR agonist activity, percent [35S]GTPγS binding at the stated compound concentration (mu opiate receptor (MOR); [18]): 198.1%; MOR agonist activity, percent [35S]GTPγS binding at the stated compound concentration (mu opiate receptor (MOR); [19]): 73.1%; % DAMGO + BFNA (mu opiate receptor (MOR); [20]): 150.7%; % DAMGO (1 μM) (mu opiate receptor (MOR); [21]): 88.8%; MOR agonist activity, percent [35S]GTPγS binding at the stated compound concentration (mu opiate receptor (MOR); [22]): 220.3%"
O=S(=O)(c1ccc(Br)cc1F)N1CCC2(CC1)OCCN2S(=O)(=O)c1ccc(Br)cc1F [Compound C0078],–,–,–,–,–,–,–,–,–,46.6%,48%,50.5%,% DAMGO (0.1 μM) (mu opiate receptor (MOR); [11]): 82.4%; Concentration of FLNA-Binding Compound as Agonist 0.1 μM (mu opiate receptor (MOR); [12]): 138.1%; Concentration of FLNA-Binding Compound as Agonist 1 μM + BFNA (mu opiate receptor (MOR); [13]): 170.7%; % DAMGO + BFNA (mu opiate receptor (MOR); [14]): 359.4%; % DAMGO (1 μM) (mu opiate receptor (MOR); [15]): 106.4%; Concentration of FLNA-Binding Compound as Agonist 1 μM (mu opiate receptor (MOR); [16]): 236.6%
CC1CCCC(OCC(O)CN2CC(C)OC(C)C2)C1 (stereo not drawn) [Compound A0021],36.8%,43.4%,49.5%,133.3%,79.8%,275.3%,12.1%,34.9%,112.4%,–,–,–,–
CC1CN(CC(O)COc2cc(F)cc(F)c2)CC(C)O1 (stereo not drawn) [Compound A0046],34.3%,38.4%,40.9%,257.5%,131.2%,354.1%,140.0%,189.4%,128.3%,–,–,–,–
CCc1ccc(S(=O)(=O)N2CCOC23CCN(CC2CC2)CC3)cc1 [Compound C0135M],–,–,–,–,–,–,–,–,–,53.9%,55.1%,62.3%,"% DAMGO (0.1 μM) (mu opiate receptor (MOR); [17]): 85.3%; MOR agonist activity, percent [35S]GTPγS binding at the stated compound concentration (mu opiate receptor (MOR); [18]): 161.3%; MOR agonist activity, percent [35S]GTPγS binding at the stated compound concentration (mu opiate receptor (MOR); [19]): 113.3%; % DAMGO + BFNA (mu opiate receptor (MOR); [20]): 233.6%; % DAMGO (1 μM) (mu opiate receptor (MOR); [21]): 124.9%; MOR agonist activity, percent [35S]GTPγS binding at the stated compound concentration (mu opiate receptor (MOR); [22]): 310.1%"
